We go through eight sequences from article PMC6694829, “Identification of Immunodominant HIV-1 Epitopes Presented by HLA-C*12:02, a Protective Allele, Using an Immunopeptidomics Approach” (Journal of Virology, 2019).

The target in assay [1] is HLA-C*12:02 heavy chain and β2-microglobulin (Homo sapiens, UniProt P10321, A176E/A330V/C350S/D114A/D33Y/L171W/L180W/L218V/M285V/M309V/M331V/P208H/Q277E/Q291P/S123Y/S297R/S48A/T329A/T363A/V319A/V328M). The assay is described as follows: peptide/HLA refolding assay analyzed by FPLC. Format: binding. The following applies: for refolded peptide/HLA-C*12:02/β2m complex FPLC peak Height: heavy chain 20 μM, β2m 2 μM, peptide 85 μM, 48 h at 4°C, Superdex 75, Fig. 2d; for refolding with HLA-C*12:02 heavy chain and β2m: low-temperature refolding, FPLC, result in words. How it is done:
Refolding of peptides with the HLA heavy chain and β2m was performed as previously described ([74]). Briefly, HLA-C*12:02 heavy chain and β2m were overexpressed in Escherichia coli as inclusion bodies and solubilized with 8 M urea. Before refolding, only β2m was refolded and purified with Superdex 75 pg 26/600 (GE Healthcare) chromatography, and the solubilized HLA heavy chain was treated with 6 M guanidine hydrochloride at 4°C overnight. The dissolved HLA heavy chain, purified monomer β2m, and peptide (final concentrations of 20 μM, 2 μM, and 85 μM, respectively) were diluted in 10 ml of refolding buffer (100 mM Tris-HCl [pH 8.0], 400 mM L-arginine, 2 mM EDTA-Na, 5 mM reduced L-glutathione, and 0.5 mM oxidized L-glutathione). After 48 h of slow stirring at 4°C, the peptide–HLA-C complex was then concentrated and purified by Superdex 75 pg 26/600 (GE Healthcare) chromatography.

A further assay deals with HLA-C*12:02 (Homo sapiens, UniProt P10321, A176E/A330V/C350S/D114A/D33Y/L171W/L180W/L218V/M285V/M309V/M331V/P208H/Q277E/Q291P/S123Y/S297R/S48A/T329A/T363A/V319A/V328M). The assay is described as follows: HLA class I stabilization assay using RMA-S-C1202 cells. It counts as cell-based. The settings on record: for binding to HLA-C*12:02 at higher peptide concentration / binding to HLA-C*12:02 (stabilization of surface HLA expression, expression index): RMA-S-C1202 cells, result in words; for binding to HLA-C*12:02 at higher peptide concentration: peptide 100 to 300 μM; for binding to HLA-C*12:02 (stabilization of surface HLA expression, expression index): peptide 0.1 to 100 μM, pulsed 26°C 1 h then 37°C 3 h, DT-9 staining, flow cytometry; for affinities of binding to HLA-C*12:02, Nef-MY9 compared with Nef-MY10: data not shown, words. How it is done:
The affinity of peptide binding to HLA-C*12:02 was examined using RMA-S-C1202 cells as previously described ([67]). Briefly, RMA-S-C1202 cells were cultured at 26°C for 16 h and then pulsed with peptides at 26°C for 1 h and subsequently incubated at 37°C for 3 h. Staining of cell surface HLA-C molecules was performed with DT-9, an HLA-C-specific monoclonal antibody (mAb) (a gift from Mary Carrington, NIH), and fluorescein isothiocyanate (FITC)-conjugated sheep anti-mouse IgG (Jackson ImmunoResearch). Staining data were acquired on a FACSCanto II instrument (BD Biosciences) and analyzed using FlowJo 10.5.3 software. Relative HLA expression was calculated as the ratio of the mean fluorescence intensity (MFI) of peptide-pulsed RMA-S-C1202 cells to that of control (non-peptide-pulsed) cells kept at 26°C.

Assay [2] relates to CD8+ T cells. The following applies: comparison Nef-MY9 vs Nef-MY10; previous study; cited from earlier work. The source says: In addition to Nef-VY9, which was previously reported as immunodominant HLA-C*12:02-restricted epitope MY9 ([52], [53]), the C-terminally extended Nef-VF10 peptide (VARELHPEYF) was also among the HIV-1 peptides identified here. […] (Nef-MY9) much more efficiently than […]Y (Nef-MY10) ([52]), despite the fact that the affinities of ...

Assay [3] relates to PBMCs from HIV-1-infected HLA-C*12:02+ individuals. In words: ex vivo IFN-γ ELISpot assay. Format: cell-based, human. The following applies: for average magnitude of the T cell responses in individuals recognizing the epitope: ex vivo ELISpot, 20 HLA-C*12:02+ individuals screened, responders only; for number of individuals with T cell response to the peptide: of 20 chronically HIV-1-infected HLA-C*12:02+ Japanese individuals, peptide 1 μM, positive >100 spots/10^6 PBMCs. How it is done: Peripheral blood mononuclear cells (PBMCs) were separated from whole blood and stored at −80°C. ELISpot assays were performed as previously described ([52]). […] The plates were then incubated for 16 h at 37°C and subsequently washed with PBS before the addition of biotinylated anti-IFN-γ mAb (Mabtech) at 1 μg/ml. After the plates had been incubated at room temperature for 90 min, they were washed with PBS and then incubated with streptavidin-conjugated alkaline phosphatase (Mabtech) for 60 min at room temperature. Following washes with PBS, individual cytokine-producing cells were visualized as dark spots after a 20-min reaction with 5-bromo-4-chloro-3-indolyl phosphate and nitroblue tetrazolium in the presence of an alkaline phosphatase-conjugated substrate (Bio-Rad). The spots were counted with an Eliphoto-Counter (Minerva Teck). The number of spots was calculated per 10^6 PBMCs. One hundred spots per 10^6 PBMCs were defined as a positive response, as described previously ([52]).

In assay [4] the test system is CD8+ T cells. The assay is described as follows: intracellular cytokine staining (ICS) assay with peptide-expanded bulk T cells. It counts as cell-based, human. The settings on record: peptide-expanded bulk T cells from responder KI-1407 (Env-RL9) or KI-1394 (Vif-DY9); IFN-γ ICS; words. The protocol: PBMCs from HIV-1-infected individuals were expanded by culture with each HIV-1 peptide for 2 weeks. .221-C1202 cells prepulsed with each HIV-1 peptide or .221-C1202 cells infected with HIV-1 NL4-3 were added to a 96-well plate together with bulk-cultured T cells, and the cells were incubated for 4 h at 37°C with brefeldin A (10 μg/ml). The cells were then stained with peridinin chlorophyll protein (PerCP)-labeled anti-CD3 mAb (BioLegend), phycoerythrin (PE)-labeled anti-CD4 mAb (BioLegend), and allophycocyanin (APC)-labeled anti-CD8 mAb (Dako) and subsequently fixed with 4% paraformaldehyde and incubated in permeabilization buffer (0.1% saponin–10% FBS–PBS). Thereafter, the cells were stained with FITC-labeled anti-IFN-γ mAb (BioLegend). Staining data were acquired on a FACSCanto II instrument (BD Biosciences) and analyzed using FlowJo 10.5.3 software.

“KGALDLSHF [Nef-KF9, HIV-1 Nef 82–90 peptide; synthesized as …]”: in assay [1], the “refolded peptide/HLA-C*12:02/β2m complex FPLC peak Height” value was found to be 4.48 mAU; the “refolding with HLA-C*12:02 heavy chain and β2m” value (shortened to “refolding”) was “shown to refold with HLA-C*12:02 heavy chain and β2m molecules”. Moreover, the “binding to HLA-C*12:02 at higher peptide concentration” value at HLA-C*12:02 is reported as “did not exhibit detectable binding”.

In the case of MARELHPEY [Nef-MY9, reference compound], the “refolding” value in assay [1] was “complex of HLA-C*12:02, peptide, and β2m was generated”. At HLA-C*12:02, the “binding to HLA-C*12:02 (stabilization of surface HLA expression, expression index)” value is given as “exhibited affinity for HLA-C*12:02 molecules” and the “affinities of binding to HLA-C*12:02, Nef-MY9 compared with Nef-MY10” value was “similar”. Besides, the “recognition by PBMCs expanded in vitro with a peptide cocktail including MARELHPEYY” value in the assay on CD8+ T cells [2] was “much more efficiently than […] (Nef-MY10)”. In addition, in assay [3], the “average magnitude of the T cell responses in individuals recognizing the epitope” value was 167 SFC/10^6 PBMCs and the “number of individuals with T cell response to the peptide” value (shortened to “number of individuals”) is 5/20.

Turning to “ILKEPVHGVYY [Pol-IY11, HIV-1 Pol 464–474 peptide […]]”, in assay [1], the “refolded peptide/HLA-C*12:02/β2m complex FPLC peak Height” value came to 4.88 mAU; the “refolding” value is “shown to refold with HLA-C*12:02 heavy chain and β2m molecules”. Besides, at HLA-C*12:02, the “binding to HLA-C*12:02 (stabilization of surface HLA expression, expression index)” value is recorded as “exhibited affinity for HLA-C*12:02 molecules”. Moreover, in assay [3], the “average magnitude of the T cell responses in individuals recognizing the epitope” value is recorded as 130 SFC/10^6 PBMCs and the “number of individuals” value is recorded as 5/20.

“MSQVTNSATIM [Gag-MM11, HIV-1 Gag 367–377 peptide eluted from HLA-C*12:02; tested as clade B consensus […]]”: in assay [1], the “refolded peptide/HLA-C*12:02/β2m complex FPLC peak Height” value is on record as 3.51 mAU; the “refolding” value was “shown to refold with HLA-C*12:02 heavy chain and β2m molecules”. Further, on HLA-C*12:02, the “binding to HLA-C*12:02 at higher peptide concentration” value is on record as “did not exhibit detectable binding”.

On to “DAKLVITTY [Vif-DY9, HIV-1 Vif 61–69 peptide …]”, for which, in the assay on CD8+ T cells [4], the “HLA restriction of T cell response: recognition of peptide-prepulsed 721.221 cells expressing single HLA alleles” value was “higher-magnitude response to Vif-DY9-pulsed HLA-B*35:01-expressing cells than to Vif-DY9-pulsed HLA-C*12:02-expressing cells”. Besides, the “number of individuals” value in assay [3] came to 1.

Consider “FLGKIWPSH [Gag-FH9, HIV-1 Gag 433–441 peptide …]”, for which, in assay [1], the “refolded peptide/HLA-C*12:02/β2m complex FPLC peak Height” value turned out to be 2.27 mAU; the “refolding” value is “shown to refold with HLA-C*12:02 heavy chain and β2m molecules”. Besides, the “binding to HLA-C*12:02 at higher peptide concentration” value on HLA-C*12:02 was “did not exhibit detectable binding”.

For the sequence “MARELHPEYY [Nef-MY10, […], consensus version of Nef-VF10, reference compound]”, at HLA-C*12:02, the “affinities of binding to HLA-C*12:02, Nef-MY9 compared with Nef-MY10” value is “similar”.

On to “LGKIWPSH [Gag-LH8, HIV-1 Gag 434–441 peptide LGKIWPSH]”, for which, in assay [1], the “refolded peptide/HLA-C*12:02/β2m complex FPLC peak Height” value is on record as 6.41 mAU; the “refolding” value is “shown to refold with HLA-C*12:02 heavy chain and β2m molecules”. For the same sequence, the “binding to HLA-C*12:02 at higher peptide concentration” value at HLA-C*12:02 is given as “did not exhibit detectable binding”.
